From patent publication US6399745B1, “Use of leptin antagonists for treating insulin resistance in type II diabetes” (Aventis Pharma Deutschland GmbH, priority 1996, dated 2002)

Tested on: isolated rat adipocytes
Experiment: Lipogenesis (incorporation of D-glucose into toluene-extractable lipids) in isolated rat adipocytes after primary culture with leptin
Format: cell-based
Details: for Lipogenesis, stimulation factor for insulin (stimulated/basal): Insulin concentration: 5 nM
Procedure: Adipocytes were prepared from the epididymal fat tissue of male Wistar rats (140-160 g, Hoechst AG breeding station, Kastengrund) by means of digesting with collagenase (Rodbell, 1964, J. Biol. Chem. 239, 375-380), washed twice with KRH (25 mM Hepes free acid, 25 mM Hepes sodium salt, 80 mM NaCl, 1 mM MgSO4, 2 mM CaCl2, 6 mM KCl, 1 mM sodium pyruvate, 0.5% BSA) and once with DMEM (Dulbecco's minimal essential medium), supplemented with 5.5 mM glucose, 20 mM Hepes (pH 7.4), 2% fetal calf serum, 1% BSA, 50 U of penicillin/ml, […], by means of flotation (800×g, 1 min, in small plastic tubes), and finally diluted to a volume of 20 ml of DMEM/g wet weight of the fat tissue (cell titer: approximately 2.5×10^5 cells/ml). The adipocytes were incubated, at 37° C. for 15-18 h under an atmosphere of 5% CO2 and with gentle shaking, in supplemented (see above) DMEM in the presence of 100 nM phenylisopropyladenosine (4 ml of DMEM to 1 ml of cells, cell titer approximately 5×10^4 cell/ml, in 50 ml sterile polypropylene: tubes) and in the presence or absence of leptin. The adipocytes were subsequently washed three times with cold KRH and adjusted to a cell titer of approximately 3×10^5 cells/ml by adding 0.7 ml of glucose-free KRH to the cell layer which remained after the complete removal of the last washing solution. In order to determine the capacity of the adipocytes to be stimulated by insulin, and their sensitivity to insulin, following the primary culture, the washed adipocytes were incubated at 37° C. for 20 min in the absence or presence of human insulin (0.02-50 nM final concentration), and glucose transport or lipogenesis was then measured. Lipogenesis was measured as the incorporation of D-glucose into toluene-extractable lipids (Moody et al., 1974, Horm. Metab. Res. 6, 12-16). 200 μl of the adipocyte suspension in KRH were incubated in scintillation vials, at 37° C. for 20 min, in 680 μl of KRH which was supplemented with 3.5 mM glucose and 20 μl of insulin solution. Lipogenesis was started by adding 100 μl of D-[3-^3H]glucose (25 μCi/ml KRH). After incubating at 37° C., and gently shaking under an atmosphere of 5% CO2, for 90 min, 10 ml of scintillation fluid (toluene-based) were added and the radioactivity in the toluene phase was determined after shaking vigorously and subsequent phase separation (at least 4 h of incubation). The radioactivity of the lipids in the toluene phase was corrected for the radioactivity of an incubation mixture which contained the same quantity of [^3H]glucose but no cells. Isolated rat adipocytes were incubated for 15 h in primary culture in the presence or absence of increasing concentrations of leptin. The cells were then washed and tested for glucose transport and lipogenesis in the basal and insulin (10 nM)-stimulated states. The stimulation factor for insulin was calculated as the ratio between insulin-stimulated and basal activities. Each value represents the mean from two independent adipocyte cultures with activity being determined two or three times in each case.

Row | Substance | Lipogenesis, stimulation factor for insulin (stimulated/basal) (no leptin) | Lipogenesis, stimulation factor for insulin (stimulated/basal) (leptin 0.3 nM 15 h) | Lipogenesis, stimulation factor for insulin (stimulated/basal) (leptin 1 nM 15 h) | Lipogenesis, stimulation factor for insulin (stimulated/basal) (leptin 3 nM 15 h) | Lipogenesis, stimulation factor for insulin (stimulated/basal) (leptin 10 nM 15 h) | Lipogenesis, stimulation factor for insulin (stimulated/basal) (leptin 30 nM 15 h) | Lipogenesis, stimulation factor for insulin (stimulated/basal) (leptin 100 nM 15 h) | insulin sensitivity of stimulation of lipogenesis (leptin, basal values unaffected)
1 | Insulin: human insulin used to stimulate adipocytes [reference compound] | 3.9 | – | – | – | – | – | – | –
2 | Leptin | – | 3.9 | 3.2 | 2.15 | 1.5 | 1.15 | 1.05 | drastically reduced
